The results in this text go back to ChEMBL document CHEMBL5518236, “Discovery of Clinical Candidate AZD5462, a Selective Oral Allosteric RXFP1 Agonist for Treatment of Heart Failure” (J Med Chem, 2024).

The source made the active and inactive calls. The rule behind the calls is not given here.

A short description of series [1]: Octanol/water partition coefficient, logD of the compound at pH 7.4 by shake flask method. It is filed as physicochemical.
Series [2] is described as follows: Metabolic stability in human hepatocytes assessed as intrinsic clearance measured per 10^6 viable cells/ml at 1 uM measured upto 120 mins by LC-MS/MS analysis. The series is classed as ADME, cell-based, Hepatocyte. The conditions noted are these: read-out: CLH.
The nature of series [3]: Metabolic stability in human hepatocytes assessed as unbound intrinsic clearance measured per 10^6 viable cells/ml at 1 uM measured upto 120 mins by LC-MS/MS analysis. The series is classed as ADME, cell-based, Hepatocyte. The conditions noted are these: 2 h.
Series [4] is described as follows: Metabolic stability in human liver microsomes assessed as intrinsic clearance at 1 uM measured upto 30 mins by LC-MS/MS analysis. It is filed as ADME, Microsome. The conditions noted are these: read-out: CLH. Background: Liver microsomes are vesicles of endoplasmic reticulum, rich in cytochrome P450 enzymes.
Series [5] in a line: Metabolic stability in human liver microsomes assessed as unbound intrinsic clearance at 1 uM measured upto 30 mins by LC-MS/MS analysis. It is filed as ADME, Microsome. The conditions noted are these: 0.5 h.
Series [6] can be described thus: Apparent permeability across apical to basolateral side in human Caco-2 cells at pH 7.4 by LC-MS/MS analysis. It is filed as ADME, cell-based. As to conditions: Caco-2, pH 7.4.
The nature of series [7]: Protein binding in rat plasma assessed as fraction unbound at 5 uM measured after 18 hrs by LC-MS/MS analysis. The series is classed as ADME, cell-free. The conditions noted are these: read-out: PPB.
A short description of series [8]: Protein binding in human plasma assessed as fraction unbound at 5 uM measured after 18 hrs by LC-MS/MS analysis. It is filed as ADME, cell-free. As to conditions: read-out: PPB.
In series [9] the target is T1, Relaxin receptor 1 (Homo sapiens) (UniProt Q9HBX9).
T1 sequence (whole entry): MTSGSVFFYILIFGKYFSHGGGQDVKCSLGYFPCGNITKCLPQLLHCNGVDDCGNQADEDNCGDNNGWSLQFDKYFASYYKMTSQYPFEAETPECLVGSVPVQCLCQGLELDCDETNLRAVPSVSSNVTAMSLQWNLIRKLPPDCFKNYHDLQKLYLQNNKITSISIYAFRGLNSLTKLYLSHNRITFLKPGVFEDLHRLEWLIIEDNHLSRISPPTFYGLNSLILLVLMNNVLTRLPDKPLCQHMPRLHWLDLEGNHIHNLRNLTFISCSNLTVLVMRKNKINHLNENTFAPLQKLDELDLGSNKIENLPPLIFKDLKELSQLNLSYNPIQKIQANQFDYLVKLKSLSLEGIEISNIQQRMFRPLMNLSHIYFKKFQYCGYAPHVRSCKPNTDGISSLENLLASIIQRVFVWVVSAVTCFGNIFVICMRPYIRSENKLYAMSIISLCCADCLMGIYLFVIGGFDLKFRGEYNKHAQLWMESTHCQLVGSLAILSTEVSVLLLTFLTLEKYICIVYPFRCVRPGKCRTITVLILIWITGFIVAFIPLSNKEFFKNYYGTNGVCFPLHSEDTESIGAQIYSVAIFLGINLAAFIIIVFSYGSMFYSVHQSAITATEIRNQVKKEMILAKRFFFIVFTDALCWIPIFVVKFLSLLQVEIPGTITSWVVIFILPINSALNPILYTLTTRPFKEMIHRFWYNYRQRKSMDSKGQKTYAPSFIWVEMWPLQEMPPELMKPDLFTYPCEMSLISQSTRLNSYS
The conditions noted are these: CHO-K1, time 15.0 min.

Series [10] deals with T2, Relaxin receptor 1 (Homo sapiens, UniProt Q9HBX9).
T2 sequence (Q9HBX9 whole entry): T1 sequence (whole entry)
Description: Agonist activity at human RXFP1 expressed in CHO cells assessed as increase in cAMP level measured after 2 hrs by HTRF cAMP assay

In the case of `COc1cc(F)c(O[C@H]2CC[C@@](CO)(C(=O)O)CC2)cc1C(=O)N[C@@H]1[C@H]2CC[C@H](C2)[C@@H]1C(=O)NCC1(C)CCC1`, in series [1], the logD – broadly, lipophilicity at a set pH, counting ionised and neutral species – stood at 1.5. Also, the hepatocyte CLint at 1 µM in [2] was 6.2 µL/min/1e6 cells. Also, the CL free was 11 µL/min in series [3] and < 6.2 µL/min/mg in series [5]. Besides, in [4], the microsomal CLint at 1 µM was < 5.1 µL/min/mg. Moreover, in [6], the apparent permeability from apical to basolateral (Papp A→B) (in general, how fast a substance crosses the layer from the apical side) stood at 3.1 ×10⁻⁶ cm/s.
Turning to `COc1cc(F)c(O[C@H]2CC[C@](C(=O)O)(C(F)(F)F)CC2)cc1C(=O)N[C@@H]1[C@H]2CC[C@H](C2)[C@@H]1C(=O)NCC1(C)CCC1`, in series [1], the logD is 2.1. The hepatocyte CLint at 1 µM in series [2] is 3.9 µL/min/1e6 cells. For the same molecule, the CL free in [3] is 8.8 µL/min; in series [5], < 5.5 µL/min/mg. Moreover, the microsomal CLint at 1 µM in series [4] is < 3 µL/min/mg. Moreover, the Papp A→B in series [6] turned out to be 35 ×10⁻⁶ cm/s.
With `CC(C)Oc1ccccc1C(=O)Nc1ccccc1C(=O)Nc1cccc(S(=O)(=O)C(F)(F)F)c1`, in series [1], the log distribution coefficient (logD) is > 4. Besides, the fraction unbound at 18 h, 5 µM in series [7] and in series [8] was < 0.0002 each time. Further, in series [3], the CL free was 3.07 10^3uL/min. The pEC50 entry in series [9] is “inactive”.
In the case of `COc1cc(F)c(O[C@H]2CC[C@@](CC#N)(C(=O)O)CC2)cc1C(=O)N[C@@H]1[C@H]2CC[C@H](C2)[C@@H]1C(=O)NCC1(C)CCC1`, the logD in series [1] came out at 1.4. Also, the hepatocyte CLint at 1 µM in [2] came out at 10 µL/min/1e6 cells. In addition, the CL free in [3] worked out at 15 µL/min; in series [5] it was 18 µL/min/mg. In addition, the microsomal CLint at 1 µM in series [4] stood at 13 µL/min/mg. In addition, the midpoint of the response in series [10], the EC50, lay at 79.4 nM.
With `Cc1cc(F)c(O[C@H]2CC[C@@](C)(C(=O)O)CC2)cc1C(=O)N[C@@H]1[C@H]2CC[C@H](C2)[C@@H]1C(=O)NCC1(C)CCC1`, the log distribution coefficient (logD) in series [1] was 2.83. Also, in series [2], the hepatocyte CLint at 1 µM came out at 15 µL/min/1e6 cells. Moreover, the CL free in series [3] was 22 µL/min; in series [5] it was 23 µL/min/mg. Moreover, the microsomal CLint at 1 µM in series [4] was 161 µL/min/mg. For the same molecule, the concentration giving a half-maximal response (EC50) (usually the concentration giving half of the maximal effect) in [10] was 2000 nM.
In the case of `CC1(CNC(=O)[C@H]2[C@@H]3CC[C@@H](C3)[C@H]2NC(=O)c2cc(O[C@H]3CC[C@@](C)(C(=O)O)CC3)c(F)cc2OCF)CCC1`, the pH-dependent lipophilicity (logD) in [1] came out at 3.3. Also, in series [2], the hepatocyte CLint at 1 µM was 8.4 µL/min/1e6 cells. Also, the values for the CL free in series [3] and in series [5] were 15 µL/min and 62 µL/min/mg, respectively. In addition, the microsomal CLint at 1 µM in series [4] was 36 µL/min/mg. For the same molecule, in series [10], the half-maximal effective concentration (EC50) is 6.31 nM.
For the molecule `COc1cc(F)c(O[C@H]2CC[C@@](C)(C(=O)O)CC2)cc1C(=O)N[C@@H]1[C@H]2CC[C@H](C2)[C@@H]1C(=O)NCC(C)(C)C(F)(F)F`, in [1], the logD stood at 3.19. Besides, the hepatocyte CLint at 1 µM in series [2] came to 4.2 µL/min/1e6 cells. For the same molecule, the CL free was 8.6 µL/min in series [3] and 23 µL/min/mg in series [5]. Moreover, the microsomal CLint at 1 µM in [4] worked out at 13 µL/min/mg. The Papp A→B in [6] was found to be 66 ×10⁻⁶ cm/s.
